Structures can show the parent of a compound that is named as a salt.
system: amyloid β production in transfected H4 (human neuroglioma) cells stably expressing APP constructs; test: In vitro cell-based assay of inhibitors of amyloid β production (ELISA); settings: Homo sapiens, 16 h, transfected H4 cells expressing APP, approximately 16 hours incubation, amyloid β in medium by ELISA; read-out: ACTIVITY (IC50, inhibition of amyloid β production)
Outline: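 Transfected H4 cells stably expressing wild-type or variant APP were exposed to compounds (initial screen 10-100 μM) for about 16 h. Secreted Aβ in the medium was quantified by sandwich ELISA (C-terminal-specific monoclonal capture, N-terminal-specific polyclonal detection) against an Aβ standard curve; dose-response runs followed for actives.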

| IC50 | Compound |
| --- | --- |
| ≤ 25 nM | CC(CCOC(=O)NCCCn1ccnc1)N(c1cc(Cl)ccc1CO)S(=O)(=O)c1ccc(Cl)cc1 (stereo not drawn) [Example 1289] |
| ≤ 25 nM | C[C@H](CCCOC(=O)N1CCCC1)N(c1cc(Cl)ccc1CO)S(=O)(=O)c1ccc(Cl)cc1 [Example 1298] |
| > 500 nM | C[C@H](C(=O)Nc1ccc2[nH]ncc2c1)N(c1cc(Cl)ccc1F)S(=O)(=O)c1ccc(Cl)cc1 [Example 1311] |

same assay, conditions: Homo sapiens, 16 h, transfected H4 cells stably expressing APP constructs; approximately 16 hours incubation; amyloid β in medium by ELISA; read-out: ACTIVITY (IC50, inhibition of amyloid β production)

| IC50 | Compound |
| --- | --- |
| > 10000 nM | O=S(=O)(c1ccc(Cl)cc1)N(Cc1cc(Cl)ccc1C#CCCO)c1ccccc1 [Example 1089, 4-chloro-N-[5-chloro-2-(4-hydroxy-1-butynyl)benzyl]-N-phenylbenzenesulfonamide] |
| ≤ 25 nM | C[C@H](CCCS(=O)(=O)N(C)C)N(c1cc(Cl)ccc1F)S(=O)(=O)c1ccc(Cl)cc1 [Example 1202, 4-chloro-N-(5-chloro-2-fluorophenyl)-N-[4-[(dimethylamino)sulfonyl]-1(R)-methylbutyl]benzenesulfonamide] |
| ≤ 25 nM | CNS(=O)(=O)CCC[C@@H](C)N(c1cc(Cl)ccc1Cl)S(=O)(=O)c1ccc(Cl)cc1 [Example 1199, 4-chloro-N-[2,5-dichlorophenyl]-N-[4-[(methylamino)sulfonyl]-1(R)-methylbutyl]benzenesulfonamide] |

same assay, conditions: Homo sapiens, 16 h, transfected H4 cells stably expressing APP; approx. 16 h incubation; amyloid β in medium by ELISA; read-out: ACTIVITY (IC50, inhibition of amyloid β production)

| IC50 | Compound |
| --- | --- |
| 100 to 500 nM | O=S(=O)(c1ccc(Cl)cc1)N(Cc1ccccc1OCCC1CCCCN1Cc1ccccc1I)c1cc(F)ccc1F (stereo not drawn) [Example 672, 4-chloro-N-(2,5-difluorophenyl)-N-(2-{2-[1-(2-iodobenzyl)-2-piperidinyl]ethoxy}benzyl)benzenesulfonamide] |

same assay, conditions: Homo sapiens, 16 h, transfected H4 cells stably expressing APP; approximately 16 hours incubation; amyloid β in medium by ELISA; read-out: ACTIVITY (IC50, inhibition of amyloid β production)

| IC50 | Compound |
| --- | --- |
| 100 to 500 nM | O=S(=O)(c1ccc(Cl)cc1)N(Cc1ccccc1OCCCN1CCCCC1)C1CCCC1 [Example 835, 4-chloro-N-cyclopentyl-N-{2-[3-(1-piperidinyl)propoxy]benzyl}benzenesulfonamide hydrochloride] |
| 100 to 500 nM | O=C(c1ccc(-c2ccccc2)cc1)N1CCCCC1CCOc1ccccc1CN(c1cc(F)ccc1F)S(=O)(=O)c1ccc(Cl)cc1 (stereo not drawn) [Example 845, N-(2-{2-[1-([1,1′-biphenyl]-4-ylcarbonyl)-2-piperidinyl]ethoxy}benzyl)-4-chloro-N-(2,5-difluorophenyl)benzenesulfonamide] |

| Compound | IC50 |
| --- | --- |
| CN1CCCCC1CCOc1ccccc1CN(c1ccccc1)S(=O)(=O)c1ccc(Cl)cc1 (stereo not drawn) [Example 889, 4-chloro-N-{2-[2-(1-methyl-2-piperidinyl)ethoxy]benzyl}-N-phenylbenzenesulfonamide hydrochloride] | > 500 nM |

same assay, conditions: Homo sapiens; transfected H4 cells stably expressing APP constructs; approximately 16 hours incubation; amyloid β in medium by ELISA; read-out: ACTIVITY (IC50, inhibition of amyloid β production)

| Compound | IC50 |
| --- | --- |
| C[Si](C)(C)C#Cc1ccccc1CN(c1ccccc1)S(=O)(=O)c1ccc(Cl)cc1 [Example 1087, 4-chloro-N-phenyl-N-{2-[(trimethylsilyl)ethynyl]benzyl}benzenesulfonamide] | > 10000 nM |

same assay, conditions: transfected H4 cells stably expressing APP constructs; approximately 16 hours incubation; amyloid β in medium by ELISA; read-out: ACTIVITY (IC50, inhibition of amyloid β production)

| Compound | IC50 |
| --- | --- |
| C[C@H](CCCSC(C)(C)C)N(c1cc(Cl)ccc1CO)S(=O)(=O)c1ccc(Cl)cc1 [Example 1229] | ≤ 25 nM |
| CSC1CCCN(CCC[C@@H](C)N(c2cc(Cl)ccc2Cl)S(=O)(=O)c2ccc(Cl)cc2)C1 (stereo partly drawn) [Example 1153, 4-chloro-N-(2,5-dichlorophenyl)-N-[4-[(3-methylthio)-1-piperidinyl]-1(R)-methylbutyl]benzenesulfonamide] | 100 to 500 nM |
| C[C@H](CCN1CCCC(CS(C)(=O)=O)C1)N(c1cc(Cl)ccc1Cl)S(=O)(=O)c1ccc(Cl)cc1 (stereo partly drawn) [Example 1151, 4-chloro-N-(2,5-dichlorophenyl)-N-[3-[(3-(methylsulfonyl)methyl]-1-piperidinyl]-1(R)-methylpropyl)benzenesulfonamide] | 100 to 500 nM |
| CCOC(=O)CCCc1ccccc1CN(c1ccccc1)S(=O)(=O)c1ccccc1[N+](=O)[O-] [Example 1096, ethyl 4-[2-({[(2-ntrophenyl)sulfonyl]anilino}methyl)phenyl]butanoate] | > 10000 nM |
| C[C@H](CCCS(C)(=O)=O)N(c1cc(Cl)ccc1CO)S(=O)(=O)c1ccc(Cl)cc1 [Example 1225, 4-chloro-N-[5-chloro-2-(hydroxymethyl)phenyl]-N-[1(R)-methyl-(4-methylsulfonyl)butyl]benzenesulfonamide] | ≤ 25 nM |
| C[C@H](CCCCN1CCC(S(C)(=O)=O)C1)N(c1cc(Cl)ccc1Cl)S(=O)(=O)c1ccc(Cl)cc1 (stereo partly drawn) [Example 1112, 4-chloro-N-(2,5-dichlorophenyl)-N-[5-[(3-methylsulfonyl)-1-pyrrolidinyl]-1(R)-methylpentyl]benzenesulfonamide] | 25 to 50 nM |

same assay, conditions: transfected H4 cells stably expressing APP; approx. 16 h incubation; amyloid β in medium by ELISA; read-out: ACTIVITY (IC50, inhibition of amyloid β production)

| IC50 | Compound |
| --- | --- |
| 100 to 500 nM | 2-((1R)-1-{[(4-chlorophenyl)sulfonyl]-2,5-difluoroanilino}ethyl)benzyl sec-butylcarbamate [Example 758] |
| 100 to 500 nM | N-{3-[2-(1-{[(4-chlorophenyl)sulfonyl]-2,5-difluoroanilino}ethyl)phenoxy]propyl}-2,4,5-trifluoro-N-methylbenzamide [Example 710] |
| 100 to 500 nM | N-{3-[2-(1-{[(4-chlorophenyl)sulfonyl]-2,5-difluoroanilino}ethyl)phenoxy]propyl}-3-methoxybenzamide [Example 690] |
| 100 to 500 nM | N-{3-[2-(1-{[(4-chlorophenyl)sulfonyl]-2,5-difluoroanilino}ethyl)phenoxy]propyl}-3-methoxy-N-methylbenzamide [Example 786] |
| 100 to 500 nM | 2,4-dichloro-N-{3-[2-(1-{[(4-chlorophenyl)sulfonyl]-2,5-difluoroanilino}ethyl)phenoxy]propyl}-5-fluoro-N-methylbenzamide [Example 750] |
| 100 to 500 nM | N-{3-[2-(1-{[(4-chlorophenyl)sulfonyl]-2,5-difluoroanilino}ethyl)phenoxy]propyl}-N-methyl-4-propylbenzamide [Example 656] |
| 100 to 500 nM | CC(C)CC(=O)N(C)CCCOc1ccccc1CN(c1cc(F)ccc1F)S(=O)(=O)c1ccc(Cl)cc1 [Example 791, N-{3-[2-({[(4-chlorophenyl)sulfonyl]-2,5-difluoroanilino}methyl)phenoxy]propyl}-N,3-dimethylbutamide] |

More lines, now with the values behind:

| Compound | IC50 |
| --- | --- |
| 2-bromo-N-{3-(2-({[(4-chlorophenyl)sulfonyl]-2,5-difluoroanilino}methyl)phenoxy]propyl}-N-methylbenzamide [Example 641] | 100 to 500 nM |
| N-{2-[2-(1-{[(4-chlorophenyl)sulfonyl]-2,5-difluoroanilino}ethyl)phenoxy]ethyl}-2-ethyl-N-methylhexanamide [Example 793] | 100 to 500 nM |
| N-{3-[2-(1-{[(4-chlorophenyl)sulfonyl]-2,5-difluoroanilino}ethyl)phenoxy]propyl}-2,6-difluoro-N-methylbenzamide [Example 755] | 100 to 500 nM |

same assay, conditions: transfected H4 cells stably expressing APP; approximately 16 hours incubation; amyloid β in medium by ELISA; Table B; read-out: ACTIVITY (IC50, inhibition of amyloid β production)

| Compound | IC50 |
| --- | --- |
| C[C@@H]1CCC[C@H](C)N1CCCOc1ccccc1CN(c1ccccc1)S(=O)(=O)c1ccc(Cl)cc1 [Example 306, 4-Chloro-N-(2-{3-[(2R,6S)-2,6-dimethylpiperidinyl]propoxy}benzyl)-N-phenylbenzenesulfonamide Hydrochloride] | 50 to 100 nM |
| CC(=O)SCCCOc1ccccc1CN(c1ccccc1)S(=O)(=O)c1ccc(Cl)cc1 [Example 341, S{3-[2-({[(4-chlorophenyl)sulfonyl]anilino}methyl)phenoxy]propyl}ethanethioate] | 50 to 100 nM |
| O=S(=O)(c1ccc(Cl)cc1)N(Cc1ccccc1OCCCn1ccnc1)c1ccccc1 [Example 302, 4-Chloro-N-{2-[3-(1H-imidazol-1-yl)propoxy]benzyl}-N-phenylbenzenesulfonamide Hydrochloride] | 50 to 100 nM |
| O=S(=O)(c1ccc(Cl)cc1)N(Cc1ccccc1OCCCN1CCC(CO)CC1)c1ccccc1 [Example 311, 4-Chloro-N-(2-{3-[4-(hydroxymethyl)-1-piperidinyl]propoxy}benzyl)-N-phenylbenzenesulfonamide Hydrochloride] | 50 to 100 nM |

same assay, conditions: transfected H4 cells stably expressing APP; approximately 16 hours incubation; amyloid β in medium by ELISA; hydrochloride; read-out: ACTIVITY (IC50, inhibition of amyloid β production)

| IC50 | Compound |
| --- | --- |
| 100 to 500 nM | C[C@@H](c1ccccc1OCCCn1ccnc1)N(c1cc(F)ccc1F)S(=O)(=O)c1ccc(Cl)cc1 [Example 861, 4-chloro-N-(2,5-difluorophenyl)-N-((1S)-1-{2-[3-(1H-imidazol-1-yl)propoxy]phenyl}ethyl)benzenesulfonamide hydrochloride] |

same assay, conditions: transfected H4 cells stably expressing APP; approximately 16 hours incubation; amyloid β in medium by ELISA; read-out: ACTIVITY (IC50, inhibition of amyloid β production)

| IC50 | Compound |
| --- | --- |
| 100 to 500 nM | N-{3-[2-(1-{[(4-chlorophenyl)sulfonyl]-2,5-difluoroanilino}ethyl)phenoxy]propyl}-4-methoxybenzamide [Example 819] |
| > 500 nM | (2R, 3R)-2,4-bis[(4-methylbenzoyl)oxy]butanedioic acid compound with 4-chloro-N-(2,5-difluorophenyl)-N-((1R)-1-{2-[3-(1H-imidazol-1- [Example 1049] |
| > 500 nM | N-{2-[2-(1-{[(4-chlorophenyl)sulfonyl]-2,5-difluoroanilino}ethyl)phenoxy]ethyl}-N-ethylacrylamide [Example 949] |

| Compound | IC50 |
| --- | --- |
| O=S(=O)(c1ccc(Cl)cc1)N(Cc1ccccc1OCc1ccncc1)c1ccccc1 [Example 1030, 4-chloro-N-phenyl-N-[2-(4-pyrdinylmethoxy)benzyl]benzenesulfonamide hydrochloride] | > 500 nM |

— patent US6967196B1, “Sulfonamide compounds and uses thereof” (Bristol-Myers Squibb Company, priority 1999, dated 2005)
